Data published in patent publication US20260022142A1, “MACROCYCLIC IMMUNOMODULATORS” (Bristol-Myers Squibb Company, priority 2022, published 2026).
Bridge positions count the residues as written; N and C are the ends. Square brackets hold non-standard residues; d marks the D form. Peptide text beside a SMILES is read from it. * marks the point of attachment. ξ: configuration not given here. Bip = N[C@@H](Cc1ccc(-c2ccccc2)cc1)C(=O)O; Phe(4-CN) = N#Cc1ccc(C[C@H](N)C(=O)O)cc1; Ala(2-furyl) = N[C@@H](Cc1ccco1)C(=O)O; Phe(3-Me) = Cc1cccc(C[C@H](N)C(=O)O)c1; NH(CH2)12COOH = O=C(O)CCCCCCCCCCCCN*; Val(3-OH) = CC(C)(O)[C@H](N)C(=O)O; Cha = N[C@@H](CC1CCCCC1)C(=O)O; Cit = NC(=O)NCCC[C@H](N)C(=O)O; Thr(3ξ) = CC(O)[C@H](N)C(=O)O; Dap(Me) = CNC[C@H](N)C(=O)O; Carboxymethyl = O=C(O)C*; Nle = CCCC[C@H](N)C(=O)O; Orn = NCCC[C@H](N)C(=O)O; Aun = NCCCCCCCCCCC(=O)O; Dab = NCC[C@H](N)C(=O)O; AEEA = NCCOCCOCC(=O)O

Target: T1, PD-1/PD-L1 interaction (PE-labeled human PD-L1-Ig binding to Jurkat cell line over-expressing human PD-1) (Homo sapiens, UniProt Q15116)
T1 construct: expressed in transfected cells; host or cells: Jurkat
Assay: Jurkat-PD-1 Cell Binding High-Content Screening Assay (CBA)
Format: cell-based
Settings: Jurkat cell line over-expressing human PD-1; PE-labeled PD-L1-Ig 20 nM final; read-out: Jurkat hPD1-PDL1 IC50
In short: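 Human PD-L1-Ig carrying a covalent PE label on its Ig tag serves as the probe, applied at 20 nM final to compound-treated (2 h, 37° C) Jurkat-hPD-1 cells in medium with 10% fetal calf serum. After one hour, fixation and nuclear staining precede high-content image analysis.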

T1 sequence (Q15116 25-288): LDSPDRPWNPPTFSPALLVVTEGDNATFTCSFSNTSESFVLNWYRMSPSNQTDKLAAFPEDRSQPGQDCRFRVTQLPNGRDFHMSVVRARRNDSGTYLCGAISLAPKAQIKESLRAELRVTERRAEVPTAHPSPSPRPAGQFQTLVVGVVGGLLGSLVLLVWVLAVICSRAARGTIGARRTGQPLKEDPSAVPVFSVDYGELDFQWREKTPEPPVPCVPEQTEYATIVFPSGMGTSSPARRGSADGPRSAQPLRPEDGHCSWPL

Row | IC50 [nM] | SMILES
1 | 3.3 | Cc1cccc(C[C@@H]2NC(=O)[C@H](CC(=O)O)NC(=O)[C@H](Cc3ccc(OCC(=O)O)cc3)NC(=O)[C@H](CCCNC(=N)N)NC(=O)CSC[C@@H](C(=O)N[C@@H](CCN)C(=O)NCCCCCCCCCCC(=O)O)NC(=O)[C@H](CC(=O)O)NC(=O)[C@H](C(C)(C)O)NC(=O)[C@H](CC3CCCCC3)NC(=O)[C@H](CCN)NC(=O)[C@@H](CC(C)C)NC(=O)[C@H](CCCN)NC(=O)[C@H](Cc3ccc(OCC(=O)O)cc3)NC(=O)[C@H](Cc3ccc(-c4ccccc4)cc3)NC(=O)[C@H](Cc3ccc(OCC(=O)O)cc3)NC2=O)c1 [Compound 2864] ({CH2CO}-RY(Carboxymethyl)D[Phe(3-Me)]Y(Carboxymethyl)[Bip]Y(Carboxymethyl)[Orn][dL][Dab][Cha][Val(3-OH)]DC[Dab][Aun]-OH; thioether N-14)
2 | 13.3 | Cc1cccc(C[C@@H]2NC(=O)[C@H](CC(=O)O)NC(=O)[C@H](Cc3ccc(OCC(=O)O)cc3)NC(=O)[C@H](Cc3ccc(C#N)cc3)NC(=O)CSC[C@@H](C(=O)N[C@@H](CCN)C(=O)NCCCCCCCCCCC(=O)O)NC(=O)[C@H](CO)NC(=O)[C@H](C(C)(C)O)NC(=O)[C@H](CC3CCCCC3)NC(=O)[C@H](CCN)NC(=O)[C@@H](CC(C)C)NC(=O)[C@H](CCCN)NC(=O)[C@H](Cc3ccc(OCC(=O)O)cc3)NC(=O)[C@H](Cc3ccc(-c4ccccc4)cc3)NC(=O)[C@H](Cc3ccc(OCC(=O)O)cc3)NC2=O)c1 [Compound 2183] ({CH2CO}-[Phe(4-CN)]Y(Carboxymethyl)D[Phe(3-Me)]Y(Carboxymethyl)[Bip]Y(Carboxymethyl)[Orn][dL][Dab][Cha][Val(3-OH)]SC[Dab][Aun]-OH; thioether N-14)
3 | 13.3 | CCCC[C@@H]1NC(=O)CSC[C@@H](C(=O)N[C@@H](CCN)C(=O)NCCOCCOCC(=O)NCCOCCOCC(=O)NCCCCCCCCCCCCC(=O)O)NC(=O)[C@H](CO)NC(=O)[C@H](C(C)(C)O)NC(=O)[C@H](CC2CCCCC2)NC(=O)[C@H](CCN)NC(=O)[C@@H](CC(C)C)NC(=O)[C@H](CCCN)NC(=O)[C@H](Cc2ccc(OCC(=O)O)cc2)NC(=O)[C@H](Cc2ccc(-c3ccccc3)cc2)NC(=O)[C@H](Cc2ccc(OCC(=O)O)cc2)NC(=O)[C@H](Cc2cccc(C)c2)NC(=O)[C@H](CC(=O)O)NC(=O)[C@H](Cc2ccc(OCC(=O)O)cc2)NC1=O [Compound 3812] ({CH2CO}-[Nle]Y(Carboxymethyl)D[Phe(3-Me)]Y(Carboxymethyl)[Bip]Y(Carboxymethyl)[Orn][dL][Dab][Cha][Val(3-OH)]SC[Dab][AEEA][AEEA]-{NH(CH2)12COOH}; thioether N-14)
4 | 73.6 | CC(C)C[C@H]1NC(=O)[C@H](CCCN)NC(=O)[C@H](Cc2ccc(O)cc2)NC(=O)[C@H](Cc2ccc(-c3ccccc3)cc2)NC(=O)[C@H](C(C)C)NC(=O)[C@H](Cc2c[nH]c3ccccc23)NC(=O)[C@H](CC(=O)O)NC(=O)[C@H](Cc2ccc(OCC(=O)O)cc2)NC(=O)[C@H](CCCNC(=N)N)NC(=O)CSC[C@@H](C(=O)N[C@@H](CCN)C(=O)NCCCCCCCCCCC(=O)O)NC(=O)[C@H](Cc2ccco2)NC(=O)[C@H](C(C)C)NC(=O)[C@H](CC2CCCCC2)NC(=O)[C@H](CCN)NC1=O [Compound 3415] ({CH2CO}-RY(Carboxymethyl)DWV[Bip]Y[Orn][dL][Dab][Cha]V[Ala(2-furyl)]C[Dab][Aun]-OH; thioether N-14)
5 | 16.2 | CNC[C@@H]1NC(=O)CSC[C@@H](C(=O)N[C@@H](CCN)C(=O)NCCCCCCCCCCC(=O)O)NC(=O)[C@H](C(C)O)NC(=O)[C@H](C(C)C)NC(=O)[C@H](CC2CCCCC2)NC(=O)[C@H](CCN)NC(=O)[C@@H](CC(C)C)NC(=O)[C@H](CCCN)NC(=O)[C@H](CCCNC(N)=O)NC(=O)[C@H](Cc2ccc(-c3ccccc3)cc2)NC(=O)[C@H](C(C)C)NC(=O)[C@H](Cc2cccc(C)c2)NC(=O)[C@H](CC(=O)O)NC(=O)[C@H](Cc2ccc(OCC(=O)O)cc2)NC1=O (stereo partly drawn) [Compound 3454] ({CH2CO}-[Dap(Me)]Y(Carboxymethyl)D[Phe(3-Me)]V[Bip][Cit][Orn][dL][Dab][Cha]V[Thr(3ξ)]C[Dab][Aun]-OH; thioether N-14)
